# US20100204128A1, “NOVEL PEPTIDES” (SANARE INVESTMENT AS, priority 2007, published 2010)
# Where “and” joins values, the source holds several entries; their conditions need not be identical. Identical values can stand only once.
# Key:
# Type in all cases: cell-based
# Settings in all cases: 24 hours, duplicate wells
# MCF-7 cells = assay: AlmarBlue fluorescence cell growth test, MCF-7 cells
# Protocol: (§1) Re-feed media were prepared to yield the following final six concentrations of each of the 12 peptides: 5×10^−3, 5×10^−4, 5×10^−5, 5×10^−6, 5×10^−7, and 5×10^−8M. […] With that, the 5×10^−3M mixture contains about 0.42×10^−3M of each peptide. […] With that, the 5×10^−3M mixture contains about 0.42×10^−3M of each of said 8 peptides.
# (§2) MCF-7 and T47D cells were seeded into 96-well plates at a density of 10,000 cells per well in 90 μL of appropriate culture medium. TMX2-28 cells were seeded into 96-well plates at a density of 5,000 cells per well in 90 μL of appropriate culture medium. Plates were placed in a 37° C., 5% CO2 incubator and cells were allowed to attach to the bottom of the well for 24 hours after which 10 μL of the appropriate refeed medium was added. Each concentration was tested in duplicate in each cell line. […] Cells were then incubated for 24 hours. Subsequently 10 μL of AlmarBlue (Biosource) was added to each well. After three hours, the fluorescence was detected using a Packard Instrument Plate Reader with 535/20 excitation and 590/20 emission filters.
# TMX2-28 cells = assay: AlmarBlue fluorescence cell growth test, TMX2-28 cells
# Protocol: With that, the 5×10^−3M mixture contains about 0.42×10^−3M of each peptide. Furthermore, mixtures containing equal volumes of peptides SEQ ID NO:2-SEQ ID NO:7, SEQ ID NO:10 and SEQ ID NO:11 were also prepared (equal volumes of said re-feed media) to yield the following final six concentrations: […] With that, the 5×10^−3M mixture contains about […].
# as §2
# T47D cells = assay: AlmarBlue fluorescence cell growth test, T47D cells
# Protocol: as §1, §2
# [1] = 5 × 10^−4 M (mixtures: total concentration), decrease vs DC5 = reduced cell growth
# [2] = 5 × 10^−5 M (mixtures: total concentration)
# [3] = 5 × 10^−6 M (mixtures: total concentration)
# [4] = 5 × 10^−7 M (mixtures: total concentration)
# [5] = 5 × 10^−8 M (mixtures: total concentration)
# [6] = 5 × 10^−9 M (mixtures: total concentration)
Substance,fluorescent readings (MCF-7 cells; [1]),fluorescent readings (MCF-7 cells; [2]),fluorescent readings (MCF-7 cells; [3]),fluorescent readings (MCF-7 cells; [4]),fluorescent readings (MCF-7 cells; [5]),fluorescent readings (MCF-7 cells; [6]),fluorescent readings (TMX2-28 cells; [1]),fluorescent readings (TMX2-28 cells; [2]),fluorescent readings (TMX2-28 cells; [3]),fluorescent readings (TMX2-28 cells; [4]),fluorescent readings (TMX2-28 cells; [5]),fluorescent readings (TMX2-28 cells; [6]),fluorescent readings (T47D cells; [1]),fluorescent readings (T47D cells; [2]),fluorescent readings (T47D cells; [3]),fluorescent readings (T47D cells; [4]),fluorescent readings (T47D cells; [5]),fluorescent readings (T47D cells; [6])
SEQIDNO7: synthesised peptide identified in the 10 kDa blood fraction after acupuncture; sequence not printed in the text (RMSIQCDVWRSKFLASRV; Derived from human blood sample),64171 and 62704,67257 and 64433,66311 and 66105,63995 and 67019,65755 and 66292,60589 and 62763,58887 and 60090,64931 and 66366,68010 and 67591,68325 and 70586,67109 and 70471,62010 and 66328,62688 and 60767,68041 and 64777,66479 and 60908,65388 and 63864,64353 and 63685,64124 and 63134
SEQIDNO8: synthesised peptide identified in the 10 kDa blood fraction after acupuncture; sequence not printed in the text (GVLLVRAPPACLQVLR; Derived from human blood sample),64002 and 64485,68720 and 70447,69897 and 70376,68985 and 70404,68423 and 68263,61653 and 66015,63114 and 65457,67475 and 69324,68833 and 70414,70559 and 72074,70603 and 73593,68676 and 68864,62688 and 60767,68041 and 64777,66479 and 60908,65388 and 63864,64353 and 63685,64124 and 63134
SEQIDNO9: synthesised peptide identified in the 10 kDa blood fraction after acupuncture; sequence not printed in the text (SSNNGCMRDPTLYRCK; Derived from human blood sample),67879 and 68176,65563 and 69218,65046 and 65931,63071 and 65962,57728 and 62231,62556 and 61065,71608 and 70176,69255 and 69328,69234 and 68280,67663 and 69155,67229 and 67807,68009 and 65131,67492 and 77427,63181 and 64535,62848 and 62359,63130 and 68689,60146 and 64467,65094 and 67070
SEQIDNO10: synthesised peptide identified in the 10 kDa blood fraction after acupuncture; sequence not printed in the text (GGVLSPADKTNVK; Derived from human blood sample),66888 and 71581,67041 and 68134,68442 and 69458,67343 and 65315,62238 and 64184,62410 and 63264,74950 and 67668,70143 and 70096,68926 and 71006,68674 and 69541,67904 and 70174,64358 and 65678,58905 and 62040,62235 and 61799,61232 and 61422,61576 and 62488,62058 and 61865,63213 and 64672
SEQIDNO11: synthesised peptide identified in the 10 kDa blood fraction after acupuncture; sequence not printed in the text (TLAGENQTALEIEELNRK; Derived from human blood sample),65114 and 72373,65947 and 68983,64058 and 64030,63837 and 64861,60430 and 65118,60886 and 63795,66600 and 67446,67045 and 66528,66568 and 64759,64371 and 65373,65587 and 66707,64433 and 65703,61976 and 62453,61546 and 64267,62448 and 60200,62557 and 63900,62018 and 64649,63935 and 65696
SEQIDNO12: synthesised peptide identified in the 10 kDa blood fraction after acupuncture; sequence not printed in the text (PVLTLDMPSSERGK; Derived from human blood sample),64634 and 66223,67452 and 68292,67604 and 67923,65967 and 68650,64530 and 64993,59810 and 61717,64801 and 66313,67335 and 67800,69868 and 69586,67062 and 68845,68382 and 67167,66458 and 66191,57184 and 62215,62230 and 62786,64065 and 63826,64023 and 65295,65019 and 65289,62179 and 65227
